Values quoted from earlier work as cited in patent US20060204445A1, “Cell scaffold matrices with image contrast agents” (priority 2005, published 2006).

Details: in vivo

## heparin
  normal half-life of heparin: 1 to 2 h
